Experiments:
[1] = test system: PC-3; test: Cell cycle arrest in human p53-null PC3 cells assessed as accumulation at G2/M phase at 100 nM (reference value: 18.37 to 18.96%); type: functional
[2] = test system: MFE-280; test: Cell cycle arrest in human MFE280 cells assessed as accumulation at G2/M phase at 300 nM (reference value: 16.43 to 17.9%); type: functional
[3] = test system: PC-3; test: Cell cycle arrest in human p53-null PC3 cells assessed as accumulation at G1 phase at 300 nM (reference value: 50.77 to 51.16%); type: functional
[4] = test system: MFE-280; test: Cell cycle arrest in human MFE280 cells assessed as accumulation at G2/M phase at 1000 nM (reference value: 16.43 to 17.9%); type: functional
[5] = test system: MFE-296; test: Induction of apoptosis in human MFE296 cells assessed as nuclear debris at 300 nM by 7-AAD/Annexin staining-based assay (reference value: 0.4 to 0.8%); type: functional
[6] = test system: T47D; test: Cell cycle arrest in human T47D cells assessed as accumulation at G1 phase at 1000 nM (reference value: 45.5 to 57.8%); type: functional
[7] = test system: PC-3; test: Cell cycle arrest in human p53-null PC3 cells assessed as accumulation at S phase at 1000 nM (reference value: 29.08 to 29.33%); type: functional
[8] = test system: MFE-280; test: Induction of apoptosis in human MFE280 cells assessed as late apoptotic cells at 100 nM by 7-AAD/Annexin staining-based assay (reference value: 6 to 7.4%); type: functional
[9] = test system: A2780; test: Cell cycle arrest in human A2780 cells assessed as accumulation at S phase at 1000 nM (reference value: 21.16 to 22.81%); type: functional
[10] = test system: MFE-280; test: Cell cycle arrest in human MFE280 cells assessed as accumulation at S phase at 100 nM (reference value: 14.14 to 15.66%); type: functional
[11] = test system: PC-3; test: Cell cycle arrest in human p53-null PC3 cells assessed as accumulation at S phase at 300 nM (reference value: 29.08 to 29.33%); type: functional
[12] = test system: MCF7; test: Cell cycle arrest in human MCF7 cells assessed as accumulation at G2/M phase at 100 nM (reference value: 20.06 to 22.33%); type: functional
[13] = test system: T47D; test: Cell cycle arrest in human T47D cells assessed as accumulation at S phase at 300 nM (reference value: 19.89 to 24.55%); type: functional
[14] = test system: A2780; test: Cell cycle arrest in human A2780 cells assessed as accumulation at G1 phase at 1000 nM (reference value: 55.26 to 55.66%); type: functional
[15] = test system: MFE-280; test: Cell cycle arrest in human MFE280 cells assessed as accumulation at S phase at 1000 nM (reference value: 14.14 to 15.66%); type: functional
[16] = test system: MFE-280; test: Cell cycle arrest in human MFE280 cells assessed as accumulation at G1 phase at 1000 nM (reference value: 64.99 to 67.86%); type: functional
[17] = test system: MFE-280; test: Induction of apoptosis in human MFE280 cells assessed as early apoptotic cells at 1000 nM by 7-AAD/Annexin staining-based assay (reference value: 5.1 to 6.2%); type: functional
[18] = test system: MFE-280; test: Induction of apoptosis in human MFE280 cells assessed as late apoptotic cells at 1000 nM by 7-AAD/Annexin staining-based assay (reference value: 6 to 7.4%); type: functional
[19] = Inhibition of bovine brain tubulin polymerization; set-up: species or system Bos taurus
[20] = test system: MCF7; test: Cell cycle arrest in human MCF7 cells assessed as accumulation at G2/M phase at 300 nM (reference value: 20.06 to 22.33%); type: functional
[21] = test system: MCF7; test: Cell cycle arrest in human MCF7 cells assessed as accumulation at G1 phase at 300 nM (reference value: 47.47 to 52.3%); type: functional
[22] = test system: MCF7; test: Cell cycle arrest in human MCF7 cells assessed as accumulation at G2/M phase at 1000 nM (reference value: 20.06 to 22.33%); type: functional
[23] = test system: MFE-280; test: Cell cycle arrest in human MFE280 cells assessed as accumulation at S phase at 300 nM (reference value: 14.14 to 15.66%); type: functional
[24] = test system: T47D; test: Cell cycle arrest in human T47D cells assessed as accumulation at S phase at 100 nM (reference value: 19.89 to 24.55%); type: functional
[25] = test system: MFE-296; test: Cell cycle arrest in human MFE296 cells assessed as accumulation at S phase at 100 nM (reference value: 16.96 to 19.19%); type: functional
[26] = test system: MFE-296; test: Cell cycle arrest in human MFE296 cells assessed as accumulation at G2/M phase at 1000 nM (reference value: 15.71 to 17.04%); type: functional
[27] = test system: MFE-296; test: Cell cycle arrest in human MFE296 cells assessed as accumulation at G1 phase at 300 nM (reference value: 61.05 to 64.87%); type: functional
[28] = test system: A2780; test: Cell cycle arrest in human A2780 cells assessed as accumulation at G1 phase at 100 nM (reference value: 55.26 to 55.66%); type: functional
[29] = test system: T47D; test: Cell cycle arrest in human T47D cells assessed as accumulation at G1 phase at 300 nM (reference value: 45.5 to 57.8%); type: functional
[30] = test system: MFE-296; test: Cell cycle arrest in human MFE296 cells assessed as accumulation at S phase at 1000 nM (reference value: 16.96 to 19.19%); type: functional
[31] = test system: MFE-280; test: Induction of apoptosis in human MFE280 cells assessed as late apoptotic cells at 300 nM by 7-AAD/Annexin staining-based assay (reference value: 6 to 7.4%); type: functional
[32] = test system: MFE-296; test: Cell cycle arrest in human MFE296 cells assessed as accumulation at G2/M phase at 100 nM (reference value: 15.71 to 17.04%); type: functional
[33] = test system: A2780; test: Cell cycle arrest in human A2780 cells assessed as accumulation at S phase at 300 nM (reference value: 21.16 to 22.81%); type: functional
[34] = test system: PC-3; test: Cell cycle arrest in human p53-null PC3 cells assessed as accumulation at G1 phase at 1000 nM (reference value: 50.77 to 51.16%); type: functional
[35] = test system: PC-3; test: Cell cycle arrest in human p53-null PC3 cells assessed as accumulation at G1 phase at 100 nM (reference value: 50.77 to 51.16%); type: functional
[36] = test system: A2780; test: Cell cycle arrest in human A2780 cells assessed as accumulation at S phase at 100 nM (reference value: 21.16 to 22.81%); type: functional
[37] = test system: MCF7; test: Cell cycle arrest in human MCF7 cells assessed as accumulation at S phase at 300 nM (reference value: 25.36 to 26.82%); type: functional
[38] = test system: PC-3; test: Cell cycle arrest in human p53-null PC3 cells assessed as accumulation at G2/M phase at 300 nM (reference value: 18.37 to 18.96%); type: functional
[39] = test system: A2780; test: Cell cycle arrest in human A2780 cells assessed as accumulation at G2/M phase at 300 nM (reference value: 19.42 to 20.43%); type: functional
[40] = test system: MCF7; test: Cell cycle arrest in human MCF7 cells assessed as accumulation at G1 phase at 1000 nM (reference value: 47.47 to 52.3%); type: functional

## O=C(Nc1ccc(-c2cccc(Cl)c2)cn1)c1cncnc1
[1]
  Activity: 25.26%
[2]
  Activity: 37.86%
[3]
  Activity: 14.74%
[4]
  Activity: 46.61%
[5]
  Activity: 2.6%
[6]
  Activity: 31.65%
[7]
  Activity: 17.78%
[8]
  Activity: 8.3%
[9]
  Activity: 7.1%
[10]
  Activity: 18.71%
[11]
  Activity: 22.85%
[12]
  Activity: 26.95%
[13]
  Activity: 27.41%
[14]
  Activity: 13.03%
[15]
  Activity: 18.57%
[16]
  Activity: 34.18%
[17]
  Activity: 5.9%
[18]
  Activity: 8.4%
[19]
  IC50: 1.45 µM
[20]
  Activity: 32.59%
[21]
  Activity: 16.22%
[22]
  Activity: 63.38%
[23]
  Activity: 21.09%
[24]
  Activity: 22.91%
[25]
  Activity: 21.05%
[26]
  Activity: 72.12%
[27]
  Activity: 13.78%
[28]
  Activity: 58.01%
[29]
  Activity: 42.55%
[30]
  Activity: 18.15%
[31]
  Activity: 9.5%
[32]
  Activity: 21.13%
[33]
  Activity: 22.35%
[34]
  Activity: 5.07%
[35]
  Activity: 51.5%
[36]
  Activity: 18.92%
[37]
  Activity: 23.22%
[38]
  Activity: 60.72%
[39]
  Activity: 30.36%
[40]
  Activity: 8.04%
